Results reported in US11000033B2, “Ketone or oxime compound, and herbicide” (NISSAN CHEMICAL CORPORATION, priority 2014, dated 2021).

Legend:
Format in all cases: in vivo
[1] = test system: Galium spurium; experiment: Test Example 4: herbicidal effect by soil treatment (symbol Q)
How it was run: (§1)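 Seeds were sown in sterilized diluvial soil, covered with about 1.5 cm of soil, and the soil surface was sprayed with a water-diluted emulsion of the compound at a predetermined rate. Plants grew in a greenhouse at 25° C. to 30° C.; effects were scored visually 3 weeks after application.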

[2] = test system: Lolium multiflorum Lam.; experiment: Test Example 5: herbicidal effect by foliage application, plastic box (symbol K); conditions: 320 g/ha, 3 weeks after application
How it was run: (§2)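 Greenhouse foliar test: seedlings at 14 days, grown 25° C. to 30° C. in sterilized diluvial soil; compound applied as an aqueous dilution of an emulsion; response read 3 weeks after spraying.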

[3] = test system: Echinochloa oryzacola Vasing.; experiment: Test Example 1: herbicidal activity, application before weed generation in submerged conditions (symbol A); conditions: application herbicide amount 320 g/ha
How it was run: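 Weed control was rated three weeks after treatment on a 0–5 scale, from 5% or lower up to 90% or more. Pre-emergence water-surface application of diluted emulsion at a predetermined rate was made on the day of sowing, in flooded (4 cm water) pots containing rice seedlings, kept at 25–30 °C under glass.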

[4] = test system: Apera spica-venti; experiment: Test Example 5: herbicidal effect by foliage application, plastic box (symbol L); conditions: 320 g/ha, 3 weeks after application
How it was run: as §2

[5] = test system: Abutilon theophrasti; experiment: Test Example 5: herbicidal effect by foliage application, plastic box (symbol M); conditions: 320 g/ha, 3 weeks after application
How it was run: as §2

[6] = test system: rapeseed; experiment: Test Example 4: effect on crop by soil treatment (symbol g)
How it was run: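 Plants are raised in a greenhouse (25° C. to 30° C.) from spot-sown seed, which sits under about 1.5 cm of sterilized diluvial soil in a box shared with weed species.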

[7] = test system: Amaranthus retroflexus; experiment: Test Example 4: herbicidal effect by soil treatment (symbol N)
How it was run: as §1

[8] = test system: Avena fatua; experiment: Test Example 5: herbicidal effect by foliage application, plastic box (symbol I); conditions: 320 g/ha, 3 weeks after application
How it was run: as §2

[9] = test system: corn; experiment: Test Example 4: effect on crop by soil treatment (symbol c)
How it was run: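 Soil-treatment setup: crop and weed seeds were spot-sown into sterilized diluvial soil, then buried beneath approximately 1.5 cm of it, and the boxes were housed in a 25–30° C. greenhouse.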

[10] = test system: Galium spurium; experiment: Test Example 5: herbicidal effect by foliage application, plastic box (symbol Q); conditions: 320 g/ha, 3 weeks after application
How it was run: as §2

[11] = test system: Veronica persica; experiment: Test Example 5: herbicidal effect by foliage application, plastic box (symbol R); conditions: 320 g/ha, 3 weeks after application
How it was run: as §2

[12] = test system: Stellaria media; experiment: Test Example 5: herbicidal effect by foliage application, plastic box (symbol P); conditions: 320 g/ha, 3 weeks after application
How it was run: as §2

[13] = test system: Amaranthus retroflexus; experiment: Test Example 5: herbicidal effect by foliage application, plastic box (symbol N); conditions: 320 g/ha, 3 weeks after application
How it was run: as §2

[14] = test system: Echinochloa crus-galli var. crus-galli; experiment: Test Example 4: herbicidal effect by soil treatment (symbol H)
How it was run: as §1

[15] = test system: Cyperus difformis; experiment: Test Example 3: herbicidal effect by foliage application, Wagner pot (symbol E); conditions: application herbicide amount 320 g/ha
How it was run: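 Steps: fill pot with alluvial soil; add water to 0.1–0.5 cm depth; sow weed and rice seed; grow 14 days at 25–30 °C; spray diluted emulsion over the leaves; rate effect after 3 weeks.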

[16] = application herbicide amount 320 g/ha

CC(CC1CC(OC(=O)N2CCOCC2)=C(c2c(C)cc(-c3ccc(Cl)cc3)cc2C)C1=O)=NOCC(F)(F)F (mixture of isomers) [9-025]
Herbicidal effect grade, Q: Galium spurium [1, 16]: 0 (Herbicidal ratio of 5% or lower (almost no effect)) | K: Lolium multiflorum Lam., herbicidal effect grade [2]: 0 (Herbicidal ratio of 5% or lower (almost no effect)) | A (Echinochloa oryzacola Vasing.) herbicidal effect grade [3]: 5 (Herbicidal ratio of 90% or more (almost completely withered)) | L: Apera spica-venti, herbicidal effect grade [4]: 0 (Herbicidal ratio of 5% or lower (almost no effect)) | M: Abutilon theophrasti, herbicidal effect grade [5]: 0 (Herbicidal ratio of 5% or lower (almost no effect)) | Effect on crop grade, g: rapeseed [6, 16]: 0 (Herbicidal ratio of 5% or lower (almost no effect)) | Herbicidal effect grade, N: Amaranthus retroflexus [7, 16]: 0 (Herbicidal ratio of 5% or lower (almost no effect)) | I: Avena fatua, herbicidal effect grade [8]: 3 (Herbicidal ratio of 40% or higher and lower than 70%) | Effect on crop grade, c: corn [9, 16]: 0 (Herbicidal ratio of 5% or lower (almost no effect)) | Q: Galium spurium, herbicidal effect grade [10]: 0 (Herbicidal ratio of 5% or lower (almost no effect)) | R: Veronica persica, herbicidal effect grade [11]: 0 (Herbicidal ratio of 5% or lower (almost no effect)) | P: Stellaria media, herbicidal effect grade [12]: 0 (Herbicidal ratio of 5% or lower (almost no effect)) | N: Amaranthus retroflexus, herbicidal effect grade [13]: 0 (Herbicidal ratio of 5% or lower (almost no effect)) | Herbicidal effect grade, H: Echinochloa crus-galli var. crus-galli [14, 16]: 0 (Herbicidal ratio of 5% or lower (almost no effect)) | E herbicidal effect grade ([15]; Table 24): 0 (Herbicidal ratio of 5% or lower (almost no effect))

CC(CC1CC(O)=C(c2c(C)cc(C)cc2C)C1=O)=NOCc1ccccc1[N+](=O)[O-] (stereo not drawn) [1-119]
Q: Galium spurium, herbicidal effect grade ([1]; 320 g/ha): 0 (Herbicidal ratio of 5% or lower (almost no effect)) | K: Lolium multiflorum Lam., herbicidal effect (criteria 0-5) [2]: 5 (Herbicidal ratio of 90% or more (almost completely withered)) | Herbicidal effect grade, A: Echinochloa oryzacola Vasing. [3]: 1 (Herbicidal ratio of 5% or higher and lower than 20%) | L: Apera spica-venti, herbicidal effect (criteria 0-5) [4]: 5 (Herbicidal ratio of 90% or more (almost completely withered)) | M: Abutilon theophrasti, herbicidal effect (criteria 0-5) [5]: 1 (Herbicidal ratio of 5% or higher and lower than 20%) | g: rapeseed, effect grade on crop ([6]; 320 g/ha): 3 (Herbicidal ratio of 40% or higher and lower than 70%) | N: Amaranthus retroflexus, herbicidal effect grade ([7]; 320 g/ha): 0 (Herbicidal ratio of 5% or lower (almost no effect)) | I: Avena fatua, herbicidal effect (criteria 0-5) [8]: 5 (Herbicidal ratio of 90% or more (almost completely withered)) | c: corn, effect grade on crop ([9]; 320 g/ha): 0 (Herbicidal ratio of 5% or lower (almost no effect)) | Q: Galium spurium, herbicidal effect (criteria 0-5) [10]: 0 (Herbicidal ratio of 5% or lower (almost no effect)) | R: Veronica persica, herbicidal effect (criteria 0-5) [11]: 3 (Herbicidal ratio of 40% or higher and lower than 70%) | P: Stellaria media, herbicidal effect (criteria 0-5) [12]: 1 (Herbicidal ratio of 5% or higher and lower than 20%) | N: Amaranthus retroflexus, herbicidal effect (criteria 0-5) [13]: 0 (Herbicidal ratio of 5% or lower (almost no effect)) | H: Echinochloa crus-galli var. crus-galli, herbicidal effect grade ([14]; 320 g/ha): 5 (Herbicidal ratio of 90% or more (almost completely withered)) | herbicidal effect on E, grade 0-5 [15]: 0 (Herbicidal ratio of 5% or lower (almost no effect))
